Laboratory results reported in patent publication US20050143927A1, “Method for estimating or predicting the anti-tumor activity of a compound and for estimating or predicting the tumor growth in mammals” (Pharmacia Italia S.p.A., priority 2002, published 2005).

Experiment: Two-compartment PK model fitted to plasma concentration of Drug-A (Experiment-A)
Conditions: for Vd: male, athymic nude, mouse, iv; for Vd / A (PK macro-constant) / Alpha (PK macro-constant) / B (PK macro-constant) / Beta (PK macro-constant): plasma
[1] = dose 20 mg/kg iv-bolus q4dx3, mean of four mice
[2] = dose 30 mg/kg iv-bolus q4dx3, mean of four mice
[3] = dose 40 mg/kg iv-bolus q4dx3, mean of four mice
[4] = mouse 0, 20 mg/kg iv-bolus q4dx3
[5] = mouse 26, 40 mg/kg iv-bolus q4dx3
[6] = mouse 28, 30 mg/kg iv-bolus q4dx3
[7] = mouse 31, 20 mg/kg iv-bolus q4dx3
[8] = mouse 55, 20 mg/kg iv-bolus q4dx3
[9] = mouse 59, 30 mg/kg iv-bolus q4dx3
[10] = mouse 64, 30 mg/kg iv-bolus q4dx3
[11] = mouse 69, 20 mg/kg iv-bolus q4dx3
[12] = mouse 78, 40 mg/kg iv-bolus q4dx3
[13] = mouse 80, 40 mg/kg iv-bolus q4dx3
[14] = mouse 81, 40 mg/kg iv-bolus q4dx3
[15] = mouse 88, 30 mg/kg iv-bolus q4dx3

CC(=O)O[C@H]1C(=O)[C@@]2(C)[C@H]([C@H](OC(=O)c3ccccc3)[C@]3(O)C[C@H](OC(=O)[C@H](O)[C@@H](NC(=O)c4ccccc4)c4ccccc4)C(C)=C1C3(C)C)[C@]1(OC(C)=O)CO[C@@H]1C[C@@H]2O [Drug-A, paclitaxel]
A (PK macro-constant), mean [1]: 34294.5621
B (PK macro-constant), mean [1]: 3467.5180
K10, mean [1]: 41.0979 day⁻¹
K12, mean [1]: 16.4430 day⁻¹
K21, mean [1]: 12.4026 day⁻¹
α (PK macro-constant), mean [1]: 62.0545
β (PK macro-constant), mean [1]: 7.8890
A (PK macro-constant), mean [2]: 56632.6519
B (PK macro-constant), mean [2]: 759.8587
K10, mean [2]: 20.8063 day⁻¹
K12, mean [2]: 2.2085 day⁻¹
K21, mean [2]: 3.4809 day⁻¹
α (PK macro-constant), mean [2]: 23.2801
β (PK macro-constant), mean [2]: 3.2157
A (PK macro-constant), mean [3]: 62064.8954
B (PK macro-constant), mean [3]: 7999.4363
K10, mean [3]: 20.0530 day⁻¹
K12, mean [3]: 9.5544 day⁻¹
K21, mean [3]: 6.2425 day⁻¹
α (PK macro-constant), mean [3]: 32.9706
β (PK macro-constant), mean [3]: 2.8793
Vd (20 mg/kg, Vd (apparent volume of distribution of the central compartment), mouse 0, 20 mg/kg iv-bolus q4dx3): 9.51 L/kg
Vd (20 mg/kg, Vd (apparent volume of distribution of the central compartment), mouse 31, 20 mg/kg iv-bolus q4dx3): 1.34 L/kg
Vd (20 mg/kg, Vd (apparent volume of distribution of the central compartment), mouse 55, 20 mg/kg iv-bolus q4dx3): 0.719 L/kg
Vd (20 mg/kg, Vd (apparent volume of distribution of the central compartment), mouse 69, 20 mg/kg iv-bolus q4dx3): 0.188 L/kg
Vd (20 mg/kg, Vd, mean, dose 20 mg/kg iv-bolus q4dx3, mean of four mice): 2.94 L/kg
Vd (30 mg/kg, Vd (apparent volume of distribution of the central compartment), mouse 28, 30 mg/kg iv-bolus q4dx3): 0.528 L/kg
Vd (30 mg/kg, Vd (apparent volume of distribution of the central compartment), mouse 59, 30 mg/kg iv-bolus q4dx3): 0.373 L/kg
Vd (30 mg/kg, Vd (apparent volume of distribution of the central compartment), mouse 64, 30 mg/kg iv-bolus q4dx3): 0.745 L/kg
Vd (30 mg/kg, Vd (apparent volume of distribution of the central compartment), mouse 88, 30 mg/kg iv-bolus q4dx3): 0.578 L/kg
Vd (30 mg/kg, Vd, mean, dose 30 mg/kg iv-bolus q4dx3, mean of four mice): 0.556 L/kg
Vd (40 mg/kg, Vd (apparent volume of distribution of the central compartment), mouse 26, 40 mg/kg iv-bolus q4dx3): 5.07 L/kg
Vd (40 mg/kg, Vd (apparent volume of distribution of the central compartment), mouse 78, 40 mg/kg iv-bolus q4dx3): 1.87 L/kg
Vd (40 mg/kg, Vd (apparent volume of distribution of the central compartment), mouse 80, 40 mg/kg iv-bolus q4dx3): 0.234 L/kg
Vd (40 mg/kg, Vd (apparent volume of distribution of the central compartment), mouse 81, 40 mg/kg iv-bolus q4dx3): 0.502 L/kg
Vd (40 mg/kg, Vd, mean, dose 40 mg/kg iv-bolus q4dx3, mean of four mice): 1.92 L/kg
K10 (constant rate of the elimination process) [4]: 25.15 day⁻¹
K12 (interchange constant rate) [4]: 15.64 day⁻¹
K21 (interchange constant rate) [4]: 5.819 day⁻¹
A (PK macro-constant) [4]: 1975
Alpha (PK macro-constant) [4]: 43.22
B (PK macro-constant) [4]: 128.5
Beta (PK macro-constant) [4]: 3.386
K10 (constant rate of the elimination process) [5]: 14.22 day⁻¹
K12 (interchange constant rate) [5]: 1.663 day⁻¹
K21 (interchange constant rate) [5]: 3.76 day⁻¹
A (PK macro-constant) [5]: 7586
Alpha (PK macro-constant) [5]: 16.38
B (PK macro-constant) [5]: 297.8
Beta (PK macro-constant) [5]: 3.265
K10 (constant rate of the elimination process) [6]: 20.98 day⁻¹
K12 (interchange constant rate) [6]: 1.774 day⁻¹
K21 (interchange constant rate) [6]: 6.257 day⁻¹
A (PK macro-constant) [6]: 54798.379413
Alpha (PK macro-constant) [6]: 23.4
B (PK macro-constant) [6]: 2069
Beta (PK macro-constant) [6]: 5.61
K10 (constant rate of the elimination process) [7]: 22.85 day⁻¹
K12 (interchange constant rate) [7]: 3.375 day⁻¹
K21 (interchange constant rate) [7]: 5.126 day⁻¹
A (PK macro-constant) [7]: 14365.650820
Alpha (PK macro-constant) [7]: 27.02
B (PK macro-constant) [7]: 518.5
Beta (PK macro-constant) [7]: 4.336
K10 (constant rate of the elimination process) [8]: 35.24 day⁻¹
K12 (interchange constant rate) [8]: 3.303 day⁻¹
K21 (interchange constant rate) [8]: 3.947 day⁻¹
A (PK macro-constant) [8]: 27526.035314
Alpha (PK macro-constant) [8]: 38.91
B (PK macro-constant) [8]: 293.5
Beta (PK macro-constant) [8]: 3.575
K10 (constant rate of the elimination process) [9]: 18.65 day⁻¹
K12 (interchange constant rate) [9]: 4.915 day⁻¹
K21 (interchange constant rate) [9]: 0.005329 day⁻¹
A (PK macro-constant) [9]: 80469.811028
Alpha (PK macro-constant) [9]: 23.57
B (PK macro-constant) [9]: 3.797
Beta (PK macro-constant) [9]: 0.004217
K10 (constant rate of the elimination process) [10]: 17.25 day⁻¹
K12 (interchange constant rate) [10]: 0.5748 day⁻¹
K21 (interchange constant rate) [10]: 3.444 day⁻¹
A (PK macro-constant) [10]: 39912.523664
Alpha (PK macro-constant) [10]: 17.96
B (PK macro-constant) [10]: 374.8
Beta (PK macro-constant) [10]: 3.308
K10 (constant rate of the elimination process) [11]: 81.15 day⁻¹
K12 (interchange constant rate) [11]: 43.46 day⁻¹
K21 (interchange constant rate) [11]: 34.72 day⁻¹
A (PK macro-constant) [11]: 93311.275568
Alpha (PK macro-constant) [11]: 139.1
B (PK macro-constant) [11]: 12929.572382
Beta (PK macro-constant) [11]: 20.26
K10 (constant rate of the elimination process) [12]: 18.81 day⁻¹
K12 (interchange constant rate) [12]: 1.318 day⁻¹
K21 (interchange constant rate) [12]: 0.03721 day⁻¹
A (PK macro-constant) [12]: 21408.348297
Alpha (PK macro-constant) [12]: 20.13
B (PK macro-constant) [12]: 2.6
Beta (PK macro-constant) [12]: 0.03477
K10 (constant rate of the elimination process) [13]: 30.07 day⁻¹
K12 (interchange constant rate) [13]: 35.07 day⁻¹
K21 (interchange constant rate) [13]: 21.07 day⁻¹
A (PK macro-constant) [13]: 139526.742848
Alpha (PK macro-constant) [13]: 78.1
B (PK macro-constant) [13]: 31692.453321
Beta (PK macro-constant) [13]: 8.112
K10 (constant rate of the elimination process) [14]: 17.11 day⁻¹
K12 (interchange constant rate) [14]: 0.1688 day⁻¹
K21 (interchange constant rate) [14]: 0.1062 day⁻¹
A (PK macro-constant) [14]: 79738.401451
Alpha (PK macro-constant) [14]: 17.28
B (PK macro-constant) [14]: 4.845
Beta (PK macro-constant) [14]: 0.1051
K10 (constant rate of the elimination process) [15]: 26.34 day⁻¹
K12 (interchange constant rate) [15]: 1.57 day⁻¹
K21 (interchange constant rate) [15]: 4.217 day⁻¹
A (PK macro-constant) [15]: 51349.893679
Alpha (PK macro-constant) [15]: 28.19
B (PK macro-constant) [15]: 591.6
Beta (PK macro-constant) [15]: 3.941
